Data as given in US10406140B2, “5-substituted benzimidazole and 5-substituted azabenzimidazole derivative both having AMPK activation effect” (Shionogi & Co., Ltd., priority 2016, dated 2019).

Target: T1, Human AMPK α2ß2γ1 (Homo sapiens, UniProt O43741+P54646)
T1 construct: The full length cDNAs of human AMPK ß2 (NM_005399.3) and human AMPK α2 (NM_006252.3); The full length cDNAs of human AMPK ß2 (NM_005399.3); 6xHis (N); made in house; host or cells: Escherichia coli BL21 CodonPlus (DE3)-RIL
Assay: Test Example 2: activator evaluation on phosphorylated human AMPK α2ß2γ1 (mobility-shift assay, FL-Peptide 7)
Assay type: biochemical
Conditions: human AMPK α2ß2γ1 pre-phosphorylated with CaMKK2; for EC150 (compound concentration showing 150% relative to the control (100%)): 25° C., 2 hours, 1% DMSO; for Emax: control without compound = 100%, read-out: Emax (maximum rate of increase in activity within the measurement range)
Description: The full length cDNAs of human AMPK ß2 (NM_005399.3) and human AMPK α2 (NM_006252.3) were inserted into the MCS1 and MCS2 of the pETDuet-1 vector to prepare a human AMPK ß2 and human AMPK α2 (6× His tag at the 5′ terminus) expressing plasmid. The plasmid was cotransfected with an expression plasmid, in which the full length cDNA of human AMPK γ1 (NM_002733.3) had been inserted into pET28b(+), into BL21 CodonPlus (DE3)-RIL to obtain an expression strain. The expression strain was cultured in TB medium, followed by induction with 0.5 mM IPTG, and cultured at 25° C. for 3 hours and then harvested.
Preparation method of human CaMKK2 used to impart activity to AMPK An expression vector, in which the full length cDNA of human CAMKK ß (NM_172226.1) had been inserted into pGEX-6P-3, was transfected into BL21 Star (DE3). The expression strain was cultured in TB medium, followed by induction with 0.5 mM IPTG, and cultured at 25° C. for 3 hours and then harvested.
Thus, phosphorylation treatment was carried out as pretreatment.
Human AMPK α2ß2γ1 in an amount to give a conversion rate of approximately 10% by reaction for 2 hours, and CaMKK2 in an amount capable of sufficiently imparting activity to AMPK for one hour were mixed in a buffer solution consisting of a 50 mM HEPES-NaOH buffer solution (pH 7.0), 100 mM NaCl, 5 mM magnesium chloride, 0.1% bovine serum albumin, 0.2 mM sodium orthovanadate(V), 1 mM ethylene glycol-bis(2-aminoethyl ether)-N,N,N′,N′-tetraacetic acid (EGTA), 5 mM disodium ß-glycerophosphate, 1 mM dithiothreitol and 0.2 mM ATP, and the resulting liquid was left to stand at 25° C. for 1 to 1.5 hours to sufficiently phosphorylate AMPK.
The resulting liquid was left to stand for 10 minutes.
The resulting liquid was allowed to react at 25° C. for 2 hours, and 10 μl of 20 mM EDTA was added thereto to stop the reaction.
To detect phosphorylated fluorescent substrates, the reaction mixture was applied to a measuring device, LabChip EZ Reader II manufactured by Caliper Life Science, Inc., for detecting fluorescence by using differences in mobility due to differences in charge. The setting conditions for the device were pressure, −1.5 PSI; upstream voltage, −2250 V; downstream voltage, −400 V; post sample buffer sip time, 40 seconds; final delay, 120 seconds; and peak order, Product First.
A conversion rate was calculated from the peak heights of the obtained substrate and product. The conversion rate when not containing a compound was used as a control, and a concentration dependent curve was made by plotting the rate of increase in activity to the control at each concentration of a compound.

T1 sequence (P54646 whole entry): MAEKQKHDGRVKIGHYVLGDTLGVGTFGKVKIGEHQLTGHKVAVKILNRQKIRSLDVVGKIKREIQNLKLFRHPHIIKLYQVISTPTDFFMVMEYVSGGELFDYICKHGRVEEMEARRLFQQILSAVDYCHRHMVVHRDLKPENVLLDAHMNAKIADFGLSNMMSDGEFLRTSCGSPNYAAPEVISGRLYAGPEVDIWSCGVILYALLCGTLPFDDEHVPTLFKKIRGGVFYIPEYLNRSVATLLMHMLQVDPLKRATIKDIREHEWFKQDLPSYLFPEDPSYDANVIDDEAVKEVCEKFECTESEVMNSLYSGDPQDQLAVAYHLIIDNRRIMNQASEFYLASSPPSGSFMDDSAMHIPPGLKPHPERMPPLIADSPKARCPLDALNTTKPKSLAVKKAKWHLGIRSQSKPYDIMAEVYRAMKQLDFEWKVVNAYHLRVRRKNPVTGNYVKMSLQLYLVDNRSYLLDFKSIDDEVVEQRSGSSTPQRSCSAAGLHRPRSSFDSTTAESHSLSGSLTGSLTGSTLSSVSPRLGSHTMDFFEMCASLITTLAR
T1 sequence (O43741 whole entry): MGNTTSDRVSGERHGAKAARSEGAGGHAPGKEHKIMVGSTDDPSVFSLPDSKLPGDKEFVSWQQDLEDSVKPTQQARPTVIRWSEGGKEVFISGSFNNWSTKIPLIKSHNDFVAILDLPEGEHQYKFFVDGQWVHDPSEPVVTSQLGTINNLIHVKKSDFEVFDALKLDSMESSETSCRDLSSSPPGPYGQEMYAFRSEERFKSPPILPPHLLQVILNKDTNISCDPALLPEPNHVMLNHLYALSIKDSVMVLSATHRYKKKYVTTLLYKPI
T1 sequence (P54619 whole entry partner): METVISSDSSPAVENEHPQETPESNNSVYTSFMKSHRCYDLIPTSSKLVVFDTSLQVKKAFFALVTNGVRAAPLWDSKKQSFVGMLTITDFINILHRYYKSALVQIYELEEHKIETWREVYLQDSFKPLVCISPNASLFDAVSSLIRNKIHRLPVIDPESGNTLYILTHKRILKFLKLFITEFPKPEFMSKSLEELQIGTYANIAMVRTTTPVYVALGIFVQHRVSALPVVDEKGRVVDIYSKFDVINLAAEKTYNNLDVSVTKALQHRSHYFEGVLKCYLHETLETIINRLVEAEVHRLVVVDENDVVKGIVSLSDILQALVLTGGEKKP

SMILES | EC150 (compound concentration showing 150% relative to the control (100%)) | Emax
CCS(=O)(CC)=Nc1ccc(-c2ccc(-c3nc4nc(O[C@@H]5CO[C@H](CO)C5(F)F)[nH]c4cc3Cl)cc2)cc1 [Compound (I-2-5)] | 6.2 nM | 575%
CS(C)(=O)=Nc1ccc(-c2ccc(-c3nc4nc(O[C@@H]5CO[C@H]6[C@@H]5OC[C@H]6O)[nH]c4cc3F)cc2)cc1 [Compound (I-1-2)] | 0.93 nM | 556%
CS(C)(=O)=Nc1ccc(-c2ccc(-c3nc4nc(O[C@@H]5CO[C@H](CO)C5(F)F)[nH]c4cc3F)cc2)cc1 [Compound (I-1-11)] | 1.1 nM | 601%
CS(C)(=O)=Nc1ccc(-c2ccc(-c3nc4nc(OCCO)[nH]c4cc3Cl)cc2)cc1 [Compound (I-1-3)] | 19 nM | 235%
CS(C)(=O)=NC1CC=C(c2ccc(-c3nc4nc(O[C@@H]5CO[C@H](CO)C5(F)F)[nH]c4cc3F)cc2)CC1 (some centres unmarked) [Compound (I-2-10)] | 2.1 nM | 604%
CC(=O)NC(C)(C)c1ccc(Oc2nc3nc(-c4ccc(-c5ccc(N=S(C)(C)=O)cc5)cc4)c(Cl)cc3[nH]2)cc1 [Compound (I-1-4)] | 3.8 nM | 364%
CS(C)(=O)=Nc1ccc(-c2ccc(-c3nc4nc(O[C@@H]5CO[C@H](CO)C5(F)F)[nH]c4cc3F)cc2)nc1 [Compound (I-2-7)] | 3.1 nM | 445%
O=S1(=Nc2ccc(-c3ccc(-c4nc5nc(O[C@@H]6CO[C@H](CO)C6(F)F)[nH]c5cc4Cl)cc3)cc2)CCOCC1 [Compound (I-2-6)] | 3.0 nM | 578%
CS(C)(=O)=Nc1ccc(-c2ccc(-c3nc4nc(O[C@@H]5CO[C@H](CO)C5(F)F)[nH]c4cc3Cl)c(F)c2)cc1 [Compound (I-2-3)] | 4.2 nM | 609%
CN=S(C)(=N)c1ccc(-c2ccc(-c3nc4nc(O[C@@H]5CO[C@H](CO)C5(F)F)[nH]c4cc3Cl)cc2)cc1 (some centres unmarked) [Compound (I-2-2)] | 3.1 nM | 604%
CS(C)(=O)=NC1CC=C(c2ccc(-c3nc4nc(O[C@@H]5CO[C@H](CO)C5(F)F)[nH]c4cc3Cl)cc2)CC1 (some centres unmarked) [Compound (I-2-9)] | 1.3 nM | 652%
CN=S(C)(=N)c1ccc(-c2ccc(-c3nc4nc(O[C@@H]5CO[C@H](CO)C5(F)F)[nH]c4cc3F)cc2)cc1 (some centres unmarked) [Compound (I-2-11)] | 1.2 nM | 649%
CS(C)(=O)=Nc1ccc(-c2ccc(-c3nc4nc(O[C@@H]5CO[C@H](CO)[C@H]5F)[nH]c4cc3Cl)cc2)cc1 [Compound (I-1-5)] | 1.4 nM | 539%
CNS(C)(=O)=Nc1ccc(-c2ccc(-c3nc4nc(O[C@@H]5CO[C@H](CO)C5(F)F)[nH]c4cc3Cl)cc2)cc1 (some centres unmarked) [Compound (I-1-12)] | 2.4 nM | 649%
CS(C)(=O)=Nc1ccc(-c2ccc(-c3nc4nc(O[C@@H]5CO[C@H](CO)[C@H]5F)[nH]c4cc3F)cc2)cc1 [Compound (I-1-10)] | 3.1 nM | 399%
COC(=O)NC1CC=C(c2ccc(-c3nc4nc(O[C@@H]5CO[C@H](CO)C5(F)F)[nH]c4cc3Cl)cc2)CC1 (some centres unmarked) [Compound (I-1-9)] | 9.5 nM | 389%
CS(C)(=O)=Nc1ccc(-c2ccc(-c3nc4nc(O[C@@H]5CO[C@H](CO)C5(F)F)[nH]c4cc3F)c(F)c2)cc1 [Compound (I-2-8)] | 0.75 nM | 619%
CS(C)(=O)=Nc1ccc(-c2ccc(-c3nc4nc(O[C@@H]5CO[C@H](CO)C5(F)F)[nH]c4cc3Cl)cc2)cc1 [Compound (I-1-7)] | 2.1 nM | 504%
CS(C)(=O)=Nc1ccc(-c2ccc(-c3nc4nc(O[C@@H]5CO[C@H](CO)C5(F)F)[nH]c4cc3Cl)cc2)nc1 [Compound (I-2-4)] | 9.7 nM | 493%
CCS(=O)(CC)=Nc1ccc(-c2ccc(-c3nc4nc(O[C@@H]5CO[C@H](CO)C5(F)F)[nH]c4cc3F)cc2)cc1 [Compound (I-2-12)] | 0.54 nM | 595%
CS(C)(=O)=Nc1ccc(-c2ccc(-c3nc4nc(O[C@@H]5CO[C@H](CO)[C@@H]5F)[nH]c4cc3Cl)cc2)cc1 [Compound (I-1-6)] | 7.4 nM | 514%
COC(=O)NC1CC=C(c2ccc(-c3nc4nc(O[C@@H]5CO[C@H](CO)[C@H]5F)[nH]c4cc3Cl)cc2)CC1 (some centres unmarked) [Compound (I-1-8)] | 21 nM | 412%
